Results on 14 molecules are retold here after patent US20080300276A1, “Heterocyclic Carboxylic Acide Amide Derivatives” (priority 2004, published 2008).

Data set [1] has as its target T1, recombinant NMDA receptors NR1/NR2A (Homo sapiens, UniProt Q05586+Q12879).
T1 construct: expressed in transfected cells
The data set is described as follows: Inhibition of NMDA evoked cytosolic calcium elevations in transfected HEK293 cells. Format: cell-based. The settings on record: for inhibition at 15 µM / inhibition at 10 µM: HEK293; for inhibition at 10 µM: read-out: NR1-3/NR2A % inhibition at 10 μM. The protocol: (1997); Neurochemistry International, 43, 19-29. (2003)]. […] Compounds were tested for their inhibitory action on NMDA evoked cytosolic calcium elevations in fluorescent calcium measurements. Studies were performed 48-72 h after addition of the inducing agent. Ketamine ([…] was also present during the induction in order to prevent cytotoxicity.
(§1) Dose-response curves and IC50-values were calculated using data derived from at least three independent experiments. Inhibitory potency of a compound at a single concentration point was expressed as percent inhibition of the NMDA response. Sigmoidal concentration-inhibition curves were fit to the data and IC50 values were determined as the concentration that produces half of the maximal inhibition caused by the compound.

In data set [2] the target is T2, NR2B containing NMDA receptors (Rattus norvegicus, UniProt P35439+Q00960).
T2 construct: primary neocortical cell cultures derived from 17 day old Charles River rat embryos; endogenous in cells; host or cells: primary rat embryonic (E17) neocortical cell culture, 3-7 days in vitro
T2 sequence (Q00960 27-1482, other chains not shown): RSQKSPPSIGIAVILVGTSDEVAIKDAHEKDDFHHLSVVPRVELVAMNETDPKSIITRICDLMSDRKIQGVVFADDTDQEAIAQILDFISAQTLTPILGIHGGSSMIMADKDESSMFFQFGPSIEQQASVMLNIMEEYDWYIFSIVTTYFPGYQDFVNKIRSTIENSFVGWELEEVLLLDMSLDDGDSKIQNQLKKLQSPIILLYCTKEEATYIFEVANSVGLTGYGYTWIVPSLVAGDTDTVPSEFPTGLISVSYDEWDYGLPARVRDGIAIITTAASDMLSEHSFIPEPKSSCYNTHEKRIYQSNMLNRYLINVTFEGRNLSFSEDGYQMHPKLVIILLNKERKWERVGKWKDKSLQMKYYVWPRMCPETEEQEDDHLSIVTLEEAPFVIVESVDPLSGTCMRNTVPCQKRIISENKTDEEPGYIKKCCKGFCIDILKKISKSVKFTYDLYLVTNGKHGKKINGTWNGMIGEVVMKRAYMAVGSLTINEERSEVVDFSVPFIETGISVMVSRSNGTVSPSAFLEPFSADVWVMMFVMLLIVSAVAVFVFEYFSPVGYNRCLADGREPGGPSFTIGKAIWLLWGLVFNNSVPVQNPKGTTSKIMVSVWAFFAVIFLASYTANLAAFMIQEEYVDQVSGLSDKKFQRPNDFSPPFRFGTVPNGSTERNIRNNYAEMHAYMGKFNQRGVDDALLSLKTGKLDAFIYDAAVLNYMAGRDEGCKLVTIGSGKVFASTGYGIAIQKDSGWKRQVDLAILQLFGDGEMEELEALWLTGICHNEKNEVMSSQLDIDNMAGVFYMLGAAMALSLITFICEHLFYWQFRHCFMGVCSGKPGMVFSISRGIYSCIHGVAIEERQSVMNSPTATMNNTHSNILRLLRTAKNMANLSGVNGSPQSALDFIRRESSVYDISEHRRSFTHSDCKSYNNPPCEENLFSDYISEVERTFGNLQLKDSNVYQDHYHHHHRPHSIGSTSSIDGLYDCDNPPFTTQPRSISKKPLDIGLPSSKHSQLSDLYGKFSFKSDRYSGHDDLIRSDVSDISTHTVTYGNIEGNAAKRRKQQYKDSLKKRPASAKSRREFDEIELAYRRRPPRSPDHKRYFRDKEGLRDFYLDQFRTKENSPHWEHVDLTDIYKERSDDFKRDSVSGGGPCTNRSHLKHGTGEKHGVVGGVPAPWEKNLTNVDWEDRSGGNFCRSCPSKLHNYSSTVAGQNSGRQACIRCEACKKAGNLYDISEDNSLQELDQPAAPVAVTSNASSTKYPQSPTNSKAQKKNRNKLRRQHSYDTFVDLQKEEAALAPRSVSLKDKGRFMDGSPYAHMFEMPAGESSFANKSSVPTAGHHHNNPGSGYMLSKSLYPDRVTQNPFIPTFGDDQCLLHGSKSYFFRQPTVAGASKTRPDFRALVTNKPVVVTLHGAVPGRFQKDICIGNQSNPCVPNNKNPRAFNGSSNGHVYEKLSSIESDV
The data set is described as follows: NMDA antagonist potency by fluorimetric intracellular calcium measurement in rat cortical cell culture. The settings on record: fluorimetric method, 40 μM NMDA. Type of data set: cell-based. The protocol:
Assessment of NMDA Antagonist Potency In Vitro by Measurement of Intracellular Calcium Concentration with a Plate Reader Fluorimeter in Rat Cortical Cell Culture
The intracellular calcium measurements were carried out on primary neocortical cell cultures derived from 17 day old Charles River rat embryos (for the details on the preparation of neocortical cell culture see Johnson, M. I.; Bunge, R. P. (1992): Primary-cell cultures of peripheral and central neurons and glia. In: Protocols for Neural Cell Culture, eds: Fedoroff, S.; Richardson A., The Humana Press Inc., 51-75. After isolation the cells were plated onto standard 96-well microplates and the cultures were maintained in an atmosphere of 95% air-5% CO2 at 37° C. until the calcium measurements.
The cultures were used for the intracellular calcium measurements after 3-7 days in vitro. The cells at this in vitro age are believed to express predominantly NR2B containing NMDA receptors [Mol. Pharmacol. 45, 846-853. (1994)]. Before the measurement the cells were loaded with a fluorescent Ca^2+-sensitive dye, Fluo-4/AM (2 μM). To stop the loading the cells were washed twice with the solution used for the measurement (140 mm NaCl, 5 mM KCl, 2 mM CaCl2, 5 mM HEPES, 5 mM HEPES-Na, 20 mM glucose, 10 mM glycine, pH=7.4). After washing the test compounds were added to the cells in the above solution (90 μl/well). Intracellular calcium measurements were carried out with a plate reader fluorimeter: elevation of Fluo-4-fluorescence and so, intracellular calcium concentration was induced by application of 40 μM NMDA. Inhibitory potency of the test compounds was assessed by measuring the reduction in the calcium elevation in the presence of different concentrations of the compounds.
as §1

In data set [3] the test system is spontaneous locomotor activity. The data set is described as follows: Spontaneous locomotor activity (LMA) in mice. Type of data set: in vivo, mouse. The settings on record: for locomotor stimulation relative to analgesic dose range (in words): mouse, in vivo. How it is done:
Male NMRI mice weighing 20-22 g were used in the experiments.
Spontaneous locomotor activity was measured in a four-channel activity monitor. The apparatus consisted of acrylic cages. (43 cm×43 cm×32 cm) equipped with 2×16 pairs of photocells along all the bottom axis of the cage. An additional array of photocells (16 pairs) was placed along two opposite sides of the cage at the height of 10 cm in order to detect rearing responses.
Experimental groups consisted of 10 animals. Thirty minutes after the oral administration of the test compound or vehicle (tween-80), the animals were individually placed in one of four cages for one hour. Horizontal and vertical movements were determined as the number of beam interruptions for one hour at 15 min intervals.
Mean ±SE of horizontal activity data of each group was calculated then percentual changes compared to the control (vehicle-treated) group were determined. A compound was considered to cause locomotor stimulation when its effect exceeded 50% increase in beam interruptions. Consequently, doses defined as free of stimulatory action (UM) produced less than 50% increase.

The subject of data set [4] is formalin response (licking/biting of the injected paw). The data set can be described thus: Mouse formalin test (second phase). Type of data set: in vivo. The conditions noted are these: for ED50: Mus musculus, read-out: Formalin ED50. How it is done:
Injection of diluted formalin into the hind paw of rats or mice is known to elicit a biphasic pain-related behaviour measured as time spent by licking/biting of the injured paw. The second phase is generally defined as pain related events detected in the 15-60 min. time interval ater formalin injection, with peak activity at around 30 min. It is known that NMDA receptors are involved in the second phase of response to formalin injection and this behavioural response is sensitive to blockade of NMDA receptors [Dickenson, A. and Besson J.-M. (Editors): Chapter 1, pp. 6-7: Animal models of Analgesia; and Chapter 8, pp. 180-183: Mechanism of Central Hypersensitivity: Excitatory Amino Acid Mechanisms and Their Control—In Pharmacology of Pain. Springer-Verlag (Berlin) 1997.] Therefore, we used the second phase of formalin test to characterize the efficacy of compounds in vivo. Inhibition of the second phase of response is considered to indicate an analgesic effect against chemically-induced persistent pain [Hunskaar, S., et al.: Formalin Test in Mice, a Useful Technique for Evaluating Mild Analgesics, Journal of Neuroscience Methods, 14 (1985) 69-76.]
Male albino Charles River NMRI mice (20-25 g) were used. Prior to the experiment any solid food was withdrawn for approx. 16 hours but the animals had free access to 20% glucose solution. The animals were allowed 1 hour acclimatization period in a glass cylinder (cc. 15 cm in diameter), then moved to an identical cylinder with a mirror placed behind to facilitate observation. The test substances were suspended in 5% tween-80 (10 ml per kg body weight) and administered orally by gavage 15 min before the formalin injection (20 μl of 1% formalin in 0.9% saline injected subcutaneously into the dorsal surface of the right hindpaw). The time spent by licking and biting of the injected paw was measured from 20 to 25 min. after the formalin injection.

In data set [5] the test system is locomotor activity. The conditions noted are these: cited from earlier work; for effect on locomotor activity (in words): animal behavioural studies.
Setting [6] is: read-out: rat cortical cells IC50.
[7] abbreviates: read-out: Rat cortical cells (NR2B) appr. IC50.
Setting [8] is: oral, 15 min before formalin, licking time 20 to 25 min.

pIC50: −log10 of the molar value. Read-outs that look alike come from different tables or passages of the source. Marks after values point to notes of the source that are not given here. Where only a bound is given, the exact number is not on record here.

T1 sequence (Q12879 23-1464, other chains not shown): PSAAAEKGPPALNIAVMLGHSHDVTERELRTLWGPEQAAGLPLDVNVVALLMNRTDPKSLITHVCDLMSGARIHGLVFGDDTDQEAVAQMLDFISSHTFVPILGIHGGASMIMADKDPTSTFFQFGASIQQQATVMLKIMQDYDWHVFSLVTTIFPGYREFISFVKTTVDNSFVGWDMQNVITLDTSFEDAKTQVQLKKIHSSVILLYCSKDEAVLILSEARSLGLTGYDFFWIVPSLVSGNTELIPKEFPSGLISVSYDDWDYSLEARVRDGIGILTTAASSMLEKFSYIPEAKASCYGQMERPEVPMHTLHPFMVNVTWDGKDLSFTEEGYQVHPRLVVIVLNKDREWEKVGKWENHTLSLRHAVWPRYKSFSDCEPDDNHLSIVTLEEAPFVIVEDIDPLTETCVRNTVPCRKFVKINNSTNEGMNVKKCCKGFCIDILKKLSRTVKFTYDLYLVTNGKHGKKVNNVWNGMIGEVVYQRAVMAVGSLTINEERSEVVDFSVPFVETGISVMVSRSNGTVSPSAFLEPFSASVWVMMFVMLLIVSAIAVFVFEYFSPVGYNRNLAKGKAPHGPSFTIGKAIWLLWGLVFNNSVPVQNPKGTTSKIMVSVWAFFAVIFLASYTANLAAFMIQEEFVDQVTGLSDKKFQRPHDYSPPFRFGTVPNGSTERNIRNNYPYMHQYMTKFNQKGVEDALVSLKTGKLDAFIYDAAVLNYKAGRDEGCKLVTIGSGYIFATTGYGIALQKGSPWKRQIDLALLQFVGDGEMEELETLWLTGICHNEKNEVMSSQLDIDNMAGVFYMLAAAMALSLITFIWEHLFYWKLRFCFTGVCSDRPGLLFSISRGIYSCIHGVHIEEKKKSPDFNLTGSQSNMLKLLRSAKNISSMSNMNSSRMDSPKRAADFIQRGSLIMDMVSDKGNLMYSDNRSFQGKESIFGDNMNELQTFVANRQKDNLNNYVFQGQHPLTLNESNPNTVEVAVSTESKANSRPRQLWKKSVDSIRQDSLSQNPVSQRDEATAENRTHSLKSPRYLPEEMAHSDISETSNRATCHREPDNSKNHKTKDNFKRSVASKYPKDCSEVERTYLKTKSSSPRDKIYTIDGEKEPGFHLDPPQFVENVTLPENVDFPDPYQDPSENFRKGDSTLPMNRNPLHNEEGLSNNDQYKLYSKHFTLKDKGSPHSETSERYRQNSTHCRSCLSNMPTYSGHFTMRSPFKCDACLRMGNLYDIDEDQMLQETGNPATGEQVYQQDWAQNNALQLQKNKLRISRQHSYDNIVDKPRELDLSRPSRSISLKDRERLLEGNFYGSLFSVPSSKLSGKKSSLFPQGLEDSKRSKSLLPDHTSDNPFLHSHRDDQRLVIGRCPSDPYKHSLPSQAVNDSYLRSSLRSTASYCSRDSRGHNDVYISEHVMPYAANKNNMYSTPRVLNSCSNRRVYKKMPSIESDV

Take `O=C(CCN1CCC(Cc2ccc(F)cc2)CC1)c1ccc2[nH]c(=O)oc2c1` [EMD 95885]: the “NR1-3/NR2A % inhibition at 10 μM” value in data set [1] stood at 0.1%. Further, the pIC50 in data set [2] (setting [6]) was 7.46.
For `O=C(c1cc2ccc(O)cc2[nH]1)N1CCC(=Cc2ccccc2)CC1` [Example 6, (4-Benzylidene-piperidine-1-yl)-(6-hydroxy-1H-indol-2-yl)-methanone], in data set [1], the inhibition at 15 µM is under 30%. Further, the LMA % increase in data set [3] (dose 3.75 mg/kg oral) is recorded as 0%; in data set [3] (dose 7.5 mg/kg oral) it was 55%; in data set [3] (dose 15 mg/kg oral) it was 69%. For the same molecule, the pIC50 in data set [2] (setting [7]) is 6.30 to 7.30. The ED50 in data set [4] (setting [8]) came out at 0.43 mg/kg.
For the molecule `O=C(c1cc2ccc(O)cc2[nH]1)N1CCC(Cc2ccccc2)CC1` [“B”, (4-benzyl-piperidin-1-yl)-(6-hydroxy-1H-indol-2-yl)-methanone], the LMA % increase in data set [3] (dose 1.875 mg/kg oral) is given as 90%. The “locomotor stimulation relative to analgesic dose range (in words)” value in data set [3] is “no separation between the doses causing analgesia and those stimulating locomotor activity”. The ED50 in data set [4] (setting [8]) was 1.7 mg/kg.
For the molecule `O=C(c1nc2ccc(O)cc2[nH]1)N1CCC(=Cc2ccc(F)cc2)CC1` [Example 3, [4-(4-Fluoro-benzylidene)-piperidine-1-yl]-(6-hydroxy-1H-benzoimidazol-2-yl)-methanone], the inhibition at 15 µM in data set [1] is under 30%. Further, in data set [2] (setting [7]), the pIC50 was over 7.30.
For the molecule “(benzyl-piperidin-1-yl)-(6-hydroxy-1H-benzoimidazol-2-yl)-methanone [“A”]”, the LMA % increase in data set [3] (dose 1.875 mg/kg oral) was 80%. Moreover, the “locomotor stimulation relative to analgesic dose range (in words)” value in data set [3] is “no separation between the doses causing analgesia and those stimulating locomotor activity”. In data set [4] (setting [8]), the “Formalin ED50” value was determined as 1.6 mg/kg.
Turning to `O=C(c1nc2ccc(O)cc2[nH]1)N1CCC(=Cc2ccccc2)CC1` [Example 1, (4-Benzylidene-piperidine-1-yl)-(6-hydroxy-1H-benzoimidazol-2-yl)-methanone], the inhibition at 15 µM in data set [1] is 33%. Also, the LMA % increase in data set [3] (dose 15 mg/kg oral) was 27%; in data set [3] (dose 30 mg/kg oral), 63%. In addition, the pIC50 in data set [2] (setting [7]) is over 7.30. In addition, the ED50 in data set [4] (setting [8]) worked out at 2.6 mg/kg.
With `COc1ccc(C=C2CCN(C(=O)c3nc4ccc(O)cc4[nH]3)CC2)cc1` [Example 5, (6-Hydroxy-1H-benzoimidazol-2-yl)-[4-(4-methoxy-benzylidene)-piperidine-1-yl]-methanone], in data set [1], the inhibition at 15 µM was 52%. Moreover, the pIC50 in data set [2] (setting [7]) was over 7.30.
`Cc1ccc(C=C2CCN(C(=O)c3nc4ccc(O)cc4[nH]3)CC2)cc1` [Example 2, (6-Hydroxy-1H-benzoimidazol-2-yl)-[4-(4-methyl-benzylidene)-piperidine-1-yl]-methanone]: the inhibition at 15 µM in data set [1] was found to be 34%. Moreover, in data set [2] (setting [7]), the pIC50 was over 7.30.
The like results for `O=C(c1nc2ccc(O)cc2[nH]1)N1CCC(=Cc2ccc(Cl)cc2)CC1` [Example 4, [4-(4-Chloro-benzylidene)-piperidine-1-yl]-(6-hydroxy-1H-benzoimidazol-2-yl)-methanone] were, in that order, under 30% and over 7.30.
As to `Cc1ccc(CC2(O)CCN(CCOc3ccc(O)cc3)CC2)cc1` [Co-101244, 1-[2-(4-hydroxyphenoxy)ethyl]-4-hydroxy-4-(4-methylbenzyl)piperidine], the inhibition at 10 µM in data set [1] was -8.7%.
With `C[C@@H]([C@@H](O)c1ccc(O)cc1)N1CCC(O)(c2ccccc2)CC1` [CP-101,606], in data set [1], the “NR1-3/NR2A % inhibition at 10 μM” value was found to be 2.5%. Also, the “effect on locomotor activity (in words)” value in data set [5] was “no such effect was observed”. The “dose up to which locomotor stimulating effect is lacking” value in data set [5] (i.p.) is listed as at most 100 mg/kg; in data set [5] (s.c.), “up to 56 mg/kg”. Besides, the “Formalin ED50” value in data set [4] (setting [8]) was >20* mg/kg.
Take `O=c1[nH]c2ccc([S+]([O-])CCN3CCC(Cc4ccc(F)cc4)CC3)cc2o1` (stereo not drawn) [CI-1041, 6-{2-[4-(4-fluoro-benzyl)-piperidin-1-yl]-ethanesulfinyl}-3H benzooazol-2-one]: the inhibition at 10 µM in data set [1] came to 21%. In data set [3] (dose 10 mg/kg oral), this molecule yielded an LMA % increase of 137%. Further, the “locomotor stimulation relative to analgesic dose range (in words)” value in data set [3] was “no separation between the doses causing analgesia and those stimulating locomotor activity”. Also, the ED50 in data set [4] (setting [8]) came out at 2.4 mg/kg.
As for `C[C@@H](CN1CCC(Cc2ccccc2)CC1)[C@@H](O)c1ccc(O)cc1` (relative stereo) [Ro 25-6981, R-(R*,S*)-1-(4-hydroxyphenyl)-2-methyl-3-[4-(phenylmethyl)piperidin-1-yl]-1-propanol], in data set [1], the “NR1-3/NR2A % inhibition at 10 μM” value is given as 1.0%. For the same molecule, the pIC50 in data set [2] (setting [6]) was 6.80. Also, the “effect on locomotor activity (in words)” value was “increase locomotor activity” in data set [5] and “no such effect was observed” in data set [5] (listed as Ro 256981). Also, the “Formalin ED50” value in data set [4] (setting [8]) is >20* mg/kg.
As to `C[C@]12N[C@H](Cc3ccccc31)c1ccccc12` [MK-801, (+)-5-Methyl-10,11-dihydro-5H-dibenzo[a,d]cyclohepten-5,10-imine], the figures for the LMA % increase in data set [3] (dose 0.1 mg/kg oral) and in data set [3] (dose 0.3 mg/kg oral) were 114% and 217%, respectively. Also, the ED50 in data set [4] (po) came to 0.15 mg/kg.
